Laboratory results taken from the NIST ThermoML archive (doi:10.1021/je500886a).

Experiment: mn = molality of the nth substance listed, in mol/kg
Conditions: 101 kPa, Liquid

O=C[C@H](O)[C@@H](O)[C@H](O)[C@H](O)CO [D-glucose] + O
Conditions	mass density [kg/m3]	viscosity [mPa·s]
288.15 K, m1 = 0.0513	–	1.167
288.15 K, m1 = 0.05146	1002.66	–
288.15 K, m1 = 0.06904	–	1.176
288.15 K, m1 = 0.07233	1004.08	–
288.15 K, m1 = 0.09026	–	1.188
288.15 K, m1 = 0.09244	1005.44	–
288.15 K, m1 = 0.1114	–	1.2
288.15 K, m1 = 0.1294	–	1.212
288.15 K, m1 = 0.149	–	1.219
298.15 K, m1 = 0.0513	–	0.911
298.15 K, m1 = 0.05146	1000.54	–
298.15 K, m1 = 0.06904	–	0.918
298.15 K, m1 = 0.07233	1001.94	–
298.15 K, m1 = 0.09026	–	0.926
298.15 K, m1 = 0.09244	1003.27	–
298.15 K, m1 = 0.1096	1004.41	–
298.15 K, m1 = 0.1114	–	0.935
298.15 K, m1 = 0.1241	1005.36	–
298.15 K, m1 = 0.1294	–	0.942
298.15 K, m1 = 0.149	–	0.951
308.15 K, m1 = 0.0513	–	0.735
308.15 K, m1 = 0.06904	–	0.741
308.15 K, m1 = 0.07233	998.9	–
308.15 K, m1 = 0.09026	–	0.747
308.15 K, m1 = 0.09244	1000.22	–
308.15 K, m1 = 0.1096	1001.34	–
308.15 K, m1 = 0.1114	–	0.755
308.15 K, m1 = 0.1241	1002.28	–
308.15 K, m1 = 0.1294	–	0.759
308.15 K, m1 = 0.1456	1003.66	–
308.15 K, m1 = 0.149	–	0.764
318.15 K, m1 = 0.0513	–	0.609
318.15 K, m1 = 0.05146	993.66	–
318.15 K, m1 = 0.06904	–	0.613
318.15 K, m1 = 0.07233	995.03	–
318.15 K, m1 = 0.09026	–	0.618
318.15 K, m1 = 0.09244	996.33	–
318.15 K, m1 = 0.1096	997.44	–
318.15 K, m1 = 0.1114	–	0.623
318.15 K, m1 = 0.1241	998.37	–
318.15 K, m1 = 0.1294	–	0.627
318.15 K, m1 = 0.1456	999.74	–
318.15 K, m1 = 0.149	–	0.632

OC[C@@H](O)[C@@H](O)[C@H](O)[C@H](O)CO [D-mannitol] + O
Conditions	mass density, 288.15 K [kg/m3]	mass density, 298.15 K [kg/m3]	mass density, 308.15 K [kg/m3]	mass density, 318.15 K [kg/m3]	viscosity, 288.15 K [mPa·s]	viscosity, 298.15 K [mPa·s]	viscosity, 308.15 K [mPa·s]	viscosity, 318.15 K [mPa·s]
m1 = 0.04909	1002.3	1000.12	997.07	993.22	–	–	–	–
m1 = 0.05269	–	–	–	–	1.176	0.918	0.74	0.611
m1 = 0.06889	1003.56	1001.34	998.27	994.41	–	–	–	–
m1 = 0.07011	–	–	–	–	1.189	0.927	0.747	0.617
m1 = 0.09002	1004.91	1002.62	999.54	995.65	–	–	–	–
m1 = 0.09107	–	–	–	–	1.203	0.936	0.754	0.621
m1 = 0.1097	–	–	–	–	1.217	0.945	0.761	0.627
m1 = 0.1134	1006.38	1004.04	1000.93	997.03	–	–	–	–
m1 = 0.1266	1007.19	1004.82	1001.71	997.8	–	–	–	–
m1 = 0.1293	–	–	–	–	1.23	0.955	0.765	0.633
m1 = 0.1469	1008.45	1006.03	1002.9	998.97	–	–	–	–
m1 = 0.15	–	–	–	–	1.246	0.964	0.774	0.639

O=C[C@@H](O)[C@@H](O)[C@H](O)[C@H](O)CO [D-mannose] + O
Conditions	mass density, 288.15 K [kg/m3]	mass density, 298.15 K [kg/m3]	mass density, 308.15 K [kg/m3]	mass density, 318.15 K [kg/m3]	viscosity, 288.15 K [mPa·s]	viscosity, 298.15 K [mPa·s]	viscosity, 308.15 K [mPa·s]	viscosity, 318.15 K [mPa·s]
m1 = 0.0501	–	–	–	–	1.168	0.912	0.735	0.608
m1 = 0.05278	1002.76	1000.64	997.63	993.78	–	–	–	–
m1 = 0.07151	1004.03	1001.9	998.87	995.02	1.181	0.92	0.742	0.613
m1 = 0.09003	1005.28	1003.14	1000.09	996.23	–	–	–	–
m1 = 0.09353	–	–	–	–	1.191	0.929	0.749	–
m1 = 0.1065	1006.39	1004.23	1001.17	997.3	–	–	–	–
m1 = 0.1123	–	–	–	–	1.201	0.936	0.756	0.624
m1 = 0.1277	–	1005.63	1002.56	998.67	–	–	–	–
m1 = 0.1318	–	–	–	–	1.214	0.945	0.761	0.628
m1 = 0.1488	–	–	1003.92	1000.02	–	–	–	–
m1 = 0.1515	–	–	–	–	1.225	0.952	0.766	0.634

OC[C@@H](O)[C@@H](O)[C@H](O)[C@@H](O)CO [D-sorbitol] + O
Conditions	mass density, 288.15 K [kg/m3]	mass density, 298.15 K [kg/m3]	mass density, 308.15 K [kg/m3]	mass density, 318.15 K [kg/m3]	viscosity, 288.15 K [mPa·s]	viscosity, 298.15 K [mPa·s]	viscosity, 308.15 K [mPa·s]	viscosity, 318.15 K [mPa·s]
m1 = 0.0479	–	–	–	–	1.169	0.914	0.736	0.609
m1 = 0.05068	1002.38	1000.23	997.2	993.33	–	–	–	–
m1 = 0.06467	–	–	–	–	1.183	0.921	0.742	0.614
m1 = 0.07063	1003.63	1001.46	998.41	994.53	–	–	–	–
m1 = 0.08656	–	–	–	–	1.197	0.932	0.75	0.62
m1 = 0.09024	1004.83	1002.65	999.59	995.7	–	–	–	–
m1 = 0.1057	1005.77	1003.58	1000.51	996.61	–	–	–	–
m1 = 0.106	–	–	–	–	1.21	0.942	0.756	0.624
m1 = 0.1249	–	–	–	–	1.226	0.951	0.765	0.631
m1 = 0.13	1007.24	1005.03	1001.95	998.04	–	–	–	–
m1 = 0.1451	–	–	–	–	1.239	0.959	0.772	0.635
m1 = 0.1465	1008.23	1006.01	1002.93	999	–	–	–	–

OC[C@H]1O[C@@](CO)(O[C@H]2O[C@H](CO)[C@@H](O)[C@H](O)[C@H]2O)[C@@H](O)[C@@H]1O [D-sucrose] + O
Conditions	mass density, 288.15 K [kg/m3]	mass density, 298.15 K [kg/m3]	mass density, 308.15 K [kg/m3]	mass density, 318.15 K [kg/m3]	viscosity, 288.15 K [mPa·s]	viscosity, 298.15 K [mPa·s]	viscosity, 308.15 K [mPa·s]	viscosity, 318.15 K [mPa·s]
m1 = 0.0482	1005.4	1003.28	1000.26	996.41	–	–	–	–
m1 = 0.05054	–	–	–	–	1.198	0.934	0.751	0.621
m1 = 0.06821	1007.96	1005.82	1002.79	998.92	–	–	–	–
m1 = 0.06969	–	–	–	–	1.221	0.951	0.766	0.632
m1 = 0.08888	1010.58	1008.42	1005.37	1001.49	–	–	–	–
m1 = 0.09107	–	–	–	–	1.242	0.969	0.78	0.645
m1 = 0.1095	1013.17	1010.99	1007.92	1004.02	–	–	–	–
m1 = 0.1098	–	–	–	–	1.264	0.984	0.793	0.654
m1 = 0.1286	1015.55	1013.35	1010.27	1006.35	–	–	–	–
m1 = 0.1293	–	–	–	–	1.286	1.001	0.805	0.666
m1 = 0.1495	1018.13	1015.9	1012.8	1008.87	–	–	–	–
m1 = 0.1497	–	–	–	–	1.31	1.019	0.819	0.675

O=C[C@H](O)[C@@H](O)[C@H](O)CO [D-xylose] + O
Conditions	mass density, 288.15 K [kg/m3]	mass density, 298.15 K [kg/m3]	mass density, 308.15 K [kg/m3]	mass density, 318.15 K [kg/m3]	viscosity, 288.15 K [mPa·s]	viscosity, 298.15 K [mPa·s]	viscosity, 308.15 K [mPa·s]	viscosity, 318.15 K [mPa·s]
m1 = 0.0491	1001.82	999.72	996.71	992.87	–	–	–	–
m1 = 0.04924	–	–	–	–	1.161	0.904	0.73	0.605
m1 = 0.06784	–	–	–	–	1.167	0.911	0.735	0.609
m1 = 0.07084	1002.99	1000.89	997.87	994.02	–	–	–	–
m1 = 0.08985	1004.02	1001.9	998.88	995.03	–	–	–	–
m1 = 0.09005	–	–	–	–	1.176	0.917	0.74	0.612
m1 = 0.1038	–	–	–	–	1.183	0.921	0.743	0.615
m1 = 0.1144	1005.32	1003.21	1000.16	996.31	–	–	–	–
m1 = 0.1285	–	–	–	–	1.19	0.929	0.749	0.62
m1 = 0.1303	1006.16	1004.04	1000.99	997.13	–	–	–	–
m1 = 0.1485	1007.12	1005	1001.94	998.07	–	–	–	–
m1 = 0.151	–	–	–	–	1.201	0.936	0.754	0.624
